Data from patent publication US6592894B1, “Hydrogel-isolated cochleate formulations, process of preparation and their use for the delivery of biologically relevant molecules” (BioDelivery Sciences International, Inc., priority 1999, dated 2003).

System: Candida albicans
Test: Fungicidal effect, ratio of colony forming units to total cell number
Format: cell-based
Details: 0.625 μg AmB/ml, after 30 hours of incubation
Method: Aliquots of yeast cells (50 μl) were removed from the 96 well plates and serially diluted (up to 1:10000 for plating onto agar plates) and counted using a hemocytometer. Fifty μl of the diluted yeast cells were plated onto YPD agar plates and incubated for 24 hours at 37° C. Yeast colonies were counted using a BioRad Fluor-S Multi-Imager equipped with Quanitity One™ software.
Yeast cells treated with AmBisome, AmB/DMSO and AmB/cochleates (0.625 μg AmB/ml) were examined for the ratio of colony forming units to total cell number after 30 hours of incubation. […] The AmBisome was not as effective, resulting in 52% yeast viability (FIG. 7).

Structure (SMILES): C[C@@H]1[C@H](O)[C@@H](C)/C=C/C=C/C=C/C=C/C=C/C=C/C=C/[C@H](O[C@@H]2O[C@H](C)[C@@H](O)[C@H](N)[C@@H]2O)C[C@@H]2O[C@](O)(C[C@@H](O)C[C@@H](O)[C@H](O)CC[C@@H](O)C[C@@H](O)CC(=O)O[C@H]1C)C[C@H](O)[C@H]2C(=O)O [AmB/DMSO, Amphotericin B]
- yeast viability (ratio of colony forming units to total cell number): 12%
